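Briefly, cells in 96-well plates were exposed to five compound concentrations for 48 h, and endpoints were estimated by linear interpolation. GI50: concentration for 50% inhibition of growth. Definition used: TGI = concentration required for complete inhibition of growth.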
Assays:
Experiment in all cases: NCI tumour cell line growth inhibition, 48 h
786-0 renal = system: 786-0 renal
A498 renal = system: A498 renal
A549 NSCLC = system: A549 NSCLC
ACHN renal = system: ACHN renal
BT-549 breast = system: BT-549 breast
CAKI-1 renal = system: CAKI-1 renal
CCRF-CEM leukemia = system: CCRF-CEM leukemia
COLO 205 colon = system: COLO 205 colon
DU-145 prostate = system: DU-145 prostate
EKVX NSCLC = system: EKVX NSCLC
HCC-2998 colon = system: HCC-2998 colon
HCT-116 colon = system: HCT-116 colon
HCT-15 colon = system: HCT-15 colon
HL-60(TB) leukemia = system: HL-60(TB) leukemia
HOP-62 NSCLC = system: HOP-62 NSCLC
HOP-92 NSCLC = system: HOP-92 NSCLC
HS 578T breast = system: HS 578T breast
HT29 colon = system: HT29 colon
IGROV1 ovarian = system: IGROV1 ovarian
K-562 leukemia = system: K-562 leukemia
KM12 colon = system: KM12 colon
LOX IMVI melanoma = system: LOX IMVI melanoma
M14 melanoma = system: M14 melanoma
MALME-3M melanoma = system: MALME-3M melanoma
MCF7 breast = system: MCF7 breast
MDA-MB-231 breast = system: MDA-MB-231 breast
MDA-MB-435 = system: MDA-MB-435
MOLT-4 leukemia = system: MOLT-4 leukemia
NCI-H226 lung = system: NCI-H226 lung
NCI-H23 lung = system: NCI-H23 lung
NCI-H460 lung = system: NCI-H460 lung
NCI-H522 lung = system: NCI-H522 lung
NCI/ADR-RES ovarian = system: NCI/ADR-RES ovarian
OVCAR-3 ovarian = system: OVCAR-3 ovarian
OVCAR-4 ovarian = system: OVCAR-4 ovarian
OVCAR-5 ovarian = system: OVCAR-5 ovarian
OVCAR-8 ovarian = system: OVCAR-8 ovarian
PC-3 prostate = system: PC-3 prostate
RPMI-8226 leukemia = system: RPMI-8226 leukemia
RXF 393 renal = system: RXF 393 renal
SF-268 CNS = system: SF-268 CNS
SF-295 CNS = system: SF-295 CNS
SF-539 CNS = system: SF-539 CNS
SK-MEL-2 melanoma = system: SK-MEL-2 melanoma
SK-MEL-28 melanoma = system: SK-MEL-28 melanoma
SK-MEL-5 melanoma = system: SK-MEL-5 melanoma
SK-OV-3 ovarian = system: SK-OV-3 ovarian
SN12C renal = system: SN12C renal
SNB-19 CNS = system: SNB-19 CNS
SNB-75 CNS = system: SNB-75 CNS
SR leukemia = system: SR leukemia
SW-620 colon = system: SW-620 colon
T-47D breast = system: T-47D breast
TK-10 renal = system: TK-10 renal
U251 CNS = system: U251 CNS
UACC-257 melanoma = system: UACC-257 melanoma
UACC-62 melanoma = system: UACC-62 melanoma
UO-31 renal = system: UO-31 renal

**Q.** What does the source list for `COc1cc2c(cc1O)N=C[C@@H]1C[C@@H](F)CN1C2=O`?
**A.** GI50 (786-0 renal): 2050 nM; TGI (786-0 renal): 12.3 µM; GI50 (A498 renal): 938 nM; TGI (A498 renal): 2890 nM; GI50 (A549 NSCLC): 7.97 µM; TGI (A549 NSCLC): > 19.7 µM; GI50 (ACHN renal): 2580 nM; TGI (ACHN renal): 6.15 µM; GI50 (BT-549 breast): 869 nM; TGI (BT-549 breast): 5.83 µM; GI50 (CAKI-1 renal): 281 nM; TGI (CAKI-1 renal): 1500 nM; GI50 (CCRF-CEM leukemia): 304 nM; TGI (CCRF-CEM leukemia): 3.3 µM; GI50 (COLO 205 colon): 3.18 µM; TGI (COLO 205 colon): 11.5 µM; GI50 (DU-145 prostate): 964 nM; TGI (DU-145 prostate): 8.86 µM; GI50 (EKVX NSCLC): 2850 nM; TGI (EKVX NSCLC): 9.8 µM; GI50 (HCC-2998 colon): 1980 nM; TGI (HCC-2998 colon): 5.66 µM; GI50 (HCT-116 colon): 1830 nM; TGI (HCT-116 colon): 5.94 µM; GI50 (HCT-15 colon): 2890 nM; TGI (HCT-15 colon): 9.33 µM; GI50 (HL-60(TB) leukemia): 588 nM; TGI (HL-60(TB) leukemia): 10.1 µM; GI50 (HOP-62 NSCLC): 2550 nM; TGI (HOP-62 NSCLC): 9.65 µM; GI50 (HOP-92 NSCLC): 269 nM; TGI (HOP-92 NSCLC): 719 nM; GI50 (HS 578T breast): 96.4 nM; TGI (HS 578T breast): 2130 nM; GI50 (HT29 colon): 4.1 µM; TGI (HT29 colon): > 44 µM; GI50 (IGROV1 ovarian): 1650 nM; TGI (IGROV1 ovarian): 8.97 µM; GI50 (K-562 leukemia): 367 nM; TGI (K-562 leukemia): 4.81 µM; GI50 (KM12 colon): 1810 nM; TGI (KM12 colon): 5.04 µM; GI50 (LOX IMVI melanoma): 2030 nM; TGI (LOX IMVI melanoma): 7.21 µM; GI50 (M14 melanoma): 1610 nM; TGI (M14 melanoma): 3.73 µM; GI50 (MALME-3M melanoma): 789 nM; TGI (MALME-3M melanoma): 2880 nM; GI50 (MCF7 breast): 608 nM; TGI (MCF7 breast): 9.06 µM; GI50 (MDA-MB-231 breast): 1840 nM; TGI (MDA-MB-231 breast): 6.21 µM; GI50 (MDA-MB-435): 1550 nM; TGI (MDA-MB-435): 3.51 µM; GI50 (MOLT-4 leukemia): 283 nM; TGI (MOLT-4 leukemia): 1230 nM; GI50 (NCI-H226 lung): 2370 nM; TGI (NCI-H226 lung): 5.39 µM; GI50 (NCI-H23 lung): 1820 nM; TGI (NCI-H23 lung): 4.44 µM; GI50 (NCI-H460 lung): 1790 nM; TGI (NCI-H460 lung): 4.61 µM; GI50 (NCI-H522 lung): 289 nM; TGI (NCI-H522 lung): 970 nM; GI50 (NCI/ADR-RES ovarian): 1870 nM; TGI (NCI/ADR-RES ovarian): 6.15 µM; TGI (OVCAR-3 ovarian): 808 nM; GI50 (OVCAR-4 ovarian): 3.93 µM; TGI (OVCAR-4 ovarian): 14.5 µM; GI50 (OVCAR-5 ovarian): 965 nM; TGI (OVCAR-5 ovarian): 6.66 µM; GI50 (OVCAR-8 ovarian): 6.37 µM; TGI (OVCAR-8 ovarian): 13.9 µM; GI50 (PC-3 prostate): 1830 nM; TGI (PC-3 prostate): 9.18 µM; GI50 (RPMI-8226 leukemia): 216 nM; TGI (RPMI-8226 leukemia): 552 nM; GI50 (RXF 393 renal): 898 nM; TGI (RXF 393 renal): 2160 nM; GI50 (SF-268 CNS): 449 nM; TGI (SF-268 CNS): 9.97 µM; GI50 (SF-295 CNS): 712 nM; TGI (SF-295 CNS): 4.33 µM; GI50 (SF-539 CNS): 1190 nM; TGI (SF-539 CNS): 4.32 µM; GI50 (SK-MEL-2 melanoma): 1160 nM; GI50 (SK-MEL-28 melanoma): 2900 nM; TGI (SK-MEL-28 melanoma): 9.39 µM; GI50 (SK-MEL-5 melanoma): 817 nM; TGI (SK-MEL-5 melanoma): 2320 nM; GI50 (SK-OV-3 ovarian): 5.91 µM; TGI (SK-OV-3 ovarian): 18.3 µM; GI50 (SN12C renal): 2520 nM; TGI (SN12C renal): 8.71 µM; GI50 (SNB-19 CNS): 2790 nM; TGI (SNB-19 CNS): 8.66 µM; GI50 (SNB-75 CNS): 15.5 µM; TGI (SNB-75 CNS): 52.4 µM; GI50 (SR leukemia): 173 nM; TGI (SR leukemia): 602 nM; GI50 (SW-620 colon): 1160 nM; TGI (SW-620 colon): 4.9 µM; GI50 (T-47D breast): 5.29 µM; TGI (T-47D breast): 32.2 µM; GI50 (TK-10 renal): 1900 nM; TGI (TK-10 renal): 13 µM; GI50 (U251 CNS): 1830 nM; TGI (U251 CNS): 10.9 µM; GI50 (UACC-257 melanoma): 17.5 µM; TGI (UACC-257 melanoma): 34.4 µM; GI50 (UACC-62 melanoma): 1810 nM; TGI (UACC-62 melanoma): 3.46 µM; GI50 (UO-31 renal): 1140 nM; TGI (UO-31 renal): 9.62 µM

From PubChem BioAssay (NCI)
